Results taken from US6867305B2, “Synthesis of epothilones, intermediates thereto and analogues thereof” (Sloan-Kettering Institute for Cancer Research, priority 1996, dated 2005).
In brackets after ≈: the same amount, converted by molar mass. Several values for one entry are separate records, joined by “and”; a condition that tells them apart may be missing. Equal entries are not always repeated. Where two headings read alike, the source gives them in different places.

Key:
[1] = test system: UL-3-C ovarian adenocarcinoma; experiment: Tumor cell growth inhibition in vitro; format: cell-based, human
Protocol: (§1) The fresh medium containing each drug was replenished every 7-14 days. […] In each case ,the drug-exposed cells were resuspended in fresh media for a minimum of 4 days before the experiments for the cell-growth inhibition was carried out.
(§2) The cells were cultured at an initial density of 2-5×10^4 cells per ml. They were maintained in a 5% CO2-humidified atmosphere at 37° C. in RPMI mediun 1640 (GIBCO/BRL) containing penicillin (100 units/ml), streptomycin (100 μg/ml) (GIBCO/BRL), and 5% heat-inactivated fetal bovine serum. For solid tumor cells growing in a monolayer (such as MCF-7/Adr), cytotoxicitiy of the drug was determined in 96-well microtiter plates by using the sulforhodamine B method as described by Skehan et al (23) for measuring the cellular protein content. For cells that were grown in suspension (such as CCRF-CEM and its sublines), cytotoxicitiy was measured by using the 2,-3-bis(2-methoxy-4-nitro-5-sulfophenyl)-5carboxanilide)-2H terazodium hydroxide (XTT)-microculture tetrazonium method (24) in duplicate in 96-well microtiter plates. For both methods, the absorbance of each well was measured with a microplate reader (EL-340, Bio-Tek, Burlington, Vt.). Each run entailed six or seven concentrations of the tested drugs. Dose-effect relationship data were analyzed with the median-effect plot (25) by using a previously described computer program (26).

[2] = physchem
[3] = Body-weight decrease and lethality in tumor-bearing nude mice
Protocol: (§3) Depending on the tumor type, treatment started on day 10 to day 21 when subcutaneous tumor size reached 35-200 mm^3, except otherwise indicated. Tumor size and body-weight were recorded every other day (Q2D) and, for humane reasons, the animals were sacrificed when tumor size reached ≧10% of body-weight. Each group, including untreated control, consisted of 3-5 animals unless otherwise indicated.
Essential features of useful cancer therapeutic agent involve not only high efficiency against cancer but also low toxicity toward the host, especially toward vital organs or functions [i.e. wide therapeutic window or high therapeutic index (LD50/ED50)].
(§4) Human tumor cells (5×10^6) or tumor tissue (30-50 mg) were implanted s.c. flank in nu/nu mice (Charles River Laboratories, Wilmington, Mass.). When tumor grew to a specified size, treatment was started by every-other day×5 with 6 hr i.v.-infusion, unless otherwise indicated. Tumor volume was measured with calipers in three dimensions (length×width×height or width). Body-weight changes and lethality were monitored every other day.

[4] = test system: CCRF-CEM human T-cell acute lymphoblastic leukemia cells; experiment: Tumor cell growth inhibition in vitro (XTT, 72 h); format: cell-based; conditions: CCRF-CEM; for IC50: 72 h incubation
Protocol: as §1, §2

[5] = test system: HCT-116 colon carcinoma xenograft; experiment: Human tumor xenograft in nude mice; format: in vivo; conditions: for Therapeutic Effect Rank Order: HCT-116, i.v. infusion
From the text: Therapeutic efficacy of cancer chemotherapeutic agents varies with various factors including the tumor models used and the dosage of drug and schedules and routes of administration. […] In the present studies, we intended to compare the therapeutic effects of drugs near their maximal tolerated doses by measuring the extent of body-weight decreases and/or lethality.
as §3
(§5) Athymic nude mice bearing the nu/nu gene were used for all human tumor xenografts. Outbred, Swiss-background mice were obtained from Charles River Laboratories. Male mice 8 weeks or older weighing 22 g and up were used for most experiments. The drug was administered via the tail vein for 6 hr.-i.v. infusion. Each individual mouse was confined in a perforated Falcon polypropylene tube restrainer for drug administration. Tumor volume was assessed by measuring length×width×height (or width) using a caliper. The programmable Harvard PHD2000 syringe pump (Harvard Apparatus) with multi-track was used for i.v. infusion. […] All animal studies were conducted in accordance with the guidelines of the National Institutes of Health “Guide for the Care and Use of Animals” and the protocol approved by the Memorial Sloan-Kettering Cancer Center's Institutional Animal Care and Use Committee. In keeping with the policy of this committee for the humane treatment of tumor-bearing animals, mice were euthanized when tumors reached ≧10% of their total body weight.
as §4

[6] = test system: K562 human chronic myeloblastic leukemia; experiment: Tumor cell growth inhibition in vitro; format: cell-based
Protocol: as §2, with “They were maintained in a 5% CO2-humidified atmosphere at 37° C. in RPMI mediun 1640 (GIBCO/BRL) containing penicillin (100 units/ml), streptomycin (100 μg/ml) (GIBCO/BRL), and 5% heat-inactivated fetal bovine serum.” left out

[7] = test system: HT-29 human colon adenocarcinoma; experiment: Tumor cell growth inhibition in vitro; format: cell-based
Protocol: as §2, with “They were maintained in a 5% CO2-humidified atmosphere at 37° C. in RPMI mediun 1640 (GIBCO/BRL) containing penicillin (100 units/ml), streptomycin (100 μg/ml) (GIBCO/BRL), and 5% heat-inactivated fetal bovine serum.” left out

[8] = test system: MX-1 human mammary carcinoma; experiment: Tumor cell growth inhibition in vitro; format: cell-based; conditions: Homo sapiens, MX1
Protocol: as §2, with “They were maintained in a 5% CO2-humidified atmosphere at 37° C. in RPMI mediun 1640 (GIBCO/BRL) containing penicillin (100 units/ml), streptomycin (100 μg/ml) (GIBCO/BRL), and 5% heat-inactivated fetal bovine serum.” left out

[9] = test system: HL-60 human promyelocytic leukemia; experiment: Tumor cell growth inhibition in vitro; format: cell-based
Protocol: as §2, with “They were maintained in a 5% CO2-humidified atmosphere at 37° C. in RPMI mediun 1640 (GIBCO/BRL) containing penicillin (100 units/ml), streptomycin (100 μg/ml) (GIBCO/BRL), and 5% heat-inactivated fetal bovine serum.” left out

[10] = test system: MCF-7 human mammary adenocarcinoma; experiment: Tumor cell growth inhibition in vitro; format: cell-based
Protocol: as §2, with “They were maintained in a 5% CO2-humidified atmosphere at 37° C. in RPMI mediun 1640 (GIBCO/BRL) containing penicillin (100 units/ml), streptomycin (100 μg/ml) (GIBCO/BRL), and 5% heat-inactivated fetal bovine serum.” left out

[11] = test system: SK-OV-3 human ovary adenocarcinoma; experiment: Tumor cell growth inhibition in vitro; format: cell-based
Protocol: as §2, with “They were maintained in a 5% CO2-humidified atmosphere at 37° C. in RPMI mediun 1640 (GIBCO/BRL) containing penicillin (100 units/ml), streptomycin (100 μg/ml) (GIBCO/BRL), and 5% heat-inactivated fetal bovine serum.” left out

[12] = test system: PC-3 human prostate adenocarcinoma; experiment: Tumor cell growth inhibition in vitro; format: cell-based
Protocol: as §2, with “They were maintained in a 5% CO2-humidified atmosphere at 37° C. in RPMI mediun 1640 (GIBCO/BRL) containing penicillin (100 units/ml), streptomycin (100 μg/ml) (GIBCO/BRL), and 5% heat-inactivated fetal bovine serum.” left out

[13] = test system: MX-1 mammary carcinoma xenograft
[14] = test system: CCRF-CEM leukemia xenograft; conditions: for body-weight reduction on day 28: CCRF-CEM-bearing nude mice, 15-azaEpoB 6 mg/kg Q2D×6
Protocol: Nude mice bearing well established CCRF-CEM tumor xenografts (average tumor size about 400 mm^3) were treated with 30 mg/kg of dEpoB or with 6 mg/kg of 15-azaEpoB, 6 hr-i.v. infusion Q2D×6 as shown in FIG. 37.
as §3, §5, §4

[15] = test system: MCF-7/Adr; experiment: Tumor cell growth inhibition in vitro; format: cell-based, human; conditions: for IC50: MCF-7/Adr; for cross-resistance (fold of resistance vs parent cell line): MCF-7/Adr vs MCF-7
Protocol: as §2, with “They were maintained in a 5% CO2-humidified atmosphere at 37° C. in RPMI mediun 1640 (GIBCO/BRL) containing penicillin (100 units/ml), streptomycin (100 μg/ml) (GIBCO/BRL), and 5% heat-inactivated fetal bovine serum.” left out

[16] = HCT-116, dEpoB 30 mg/kg, Taxol 20 mg/kg, Q2Dx51x3, 6-hr i.v. infusion
[17] = Homo sapiens, MCF7, MCF-7, read-out: IC50
[18] = CCRF-CEM, i.v. infusion, FIG. 5
[19] = Homo sapiens, K562, K562, read-out: IC50
[20] = CCRF/CEM, dEpoB 40 mg/kg, Taxol 20 mg/kg, Q2Dx4, 6-hr i.v. infusion

SMILES | IC50 [4] | Tumor Disappearance [5, 16] | IC50 [7] | IC50 [8] | IC50 [9] | IC50 [10, 17] | IC50 [11] | IC50 [12] | IC50 ([1]; Homo sapiens, read-out: IC50) | Therapeutic Effect Rank Order [14, 18] | body-weight reduction on day 28 ([14]; dEpoF 30 mg/kg) | cross-resistance (fold of resistance vs parent cell line) [15] | solubility [2] | drop in body-weight during treatment without causing lethality ([3]; nude mice) | Therapeutic Effect Rank Order [5] | IC50 [6, 19] | IC50 ([10]; MCF-7) | IC50 ([15]; Homo sapiens, NCI/ADR-RES) | IC50 [15] | other results
CC(=O)O[C@H]1C(=O)[C@@]2(C)[C@H]([C@H](OC(=O)c3ccccc3)[C@]3(O)C[C@H](OC(=O)[C@H](O)[C@@H](NC(=O)c4ccccc4)c4ccccc4)C(C)=C1C3(C)C)[C@]1(OC(C)=O)CO[C@@H]1C[C@@H]2O [Taxol, paclitaxel, reference compound] | 1.2 nM | 3/3 | 1.6 nM | 39.4 nM | 1.1 nM | 2.4 nM | 3.8 nM | 28 nM | – | – | – | – | – | – | – | – | – | – | – | IC50 [1]: 1.5 nM; IC50 ([1]; Homo sapiens): 1.6 nM; solubility ([2]; water): ~600 µg/mL (≈ 0.703 mM); body-weight decrease without lethality at the doses used ([3]; mouse, in vivo): 10-20%; IC50 ([6]; Homo sapiens, K562, read-out: IC50): 2.9 nM
C/C(=C\c1csc(C)n1)C1C[C@@H]2O[C@]2(C)CCC[C@H](C)[C@H](O)[C@@H](C)C(=O)C(C)(C)C(O)CC(=O)N1 (stereo partly shown) [aza-EpoB, aza-epothilone B] | – | – | 3.2 nM | 2.4 nM | 2.5 nM | 4.3 nM | 16 nM | 42 nM | 1.2 nM | dEpoF>>>15-azaEpoB | about 10% | 2.7 x | – | – | – | – | – | – | – | mice died of toxicity on day 22 ([13]; MX-1-bearing mice, azaEpoB 6 mg/kg): one out of five; Therapeutic Effect Rank Order ([13]; mouse, in vivo, iv): dEpoB>>>15-azaEpoB; drop in body-weight that led to lethality ([3]; nude mice): 14-20%; IC50 ([4]; Homo sapiens, read-out: IC50): 2.1 nM; therapeutic effect on tumor growth ([14]; CCRF-CEM, tumor about 400 mm^3, 15-azaEpoB 6 mg/kg, 6 hr-i.v. infusion Q2D×6): Moderate suppression of tumor growth; IC50 ([6]; K562, listed as 15-aza-EpoB, read-out: IC50): 60 nM; IC50 ([6]; K562, read-out: IC50): 4 nM; IC50 ([15]; Homo sapiens, NCI/ADR-RES, read-out: IC50): 11.8 nM
C/C1=C/C[C@@H](/C(C)=C/c2csc(CO)n2)OC(=O)C[C@H](O)C(C)(C)C(=O)[C@H](C)[C@@H](O)[C@@H](C)CCC1 [dEpoF, 12,13-Desoxyepothilone F] | 2.7 nM | – | 1.4 nM | 4.2 nM | 0.7 nM | 6.9 nM | 5.1 nM | 11.9 nM | 4.8 nM | dEpoF>>>15-azaEpoB | about 10% | 1.4 x and 1.9 x | ~25000 µg/mL (≈ 49.2 mM) | 23-29% | Taxol, CPT-11≈dEpoB, dEpoF | 2.1 nM | 10 nM | 9.7 nM | 18.6 nM | therapeutic effect on tumor growth ([13]; MX-1, dEpoF 15 mg/kg Q2D×5, 6 hr-i.v. infusion): tumor growth was partially suppressed; tumor disappearance (tumor free mice) ([13]; MX-1, dEpoF 30 mg/kg Q2D×5, 6 hr-i.v. infusion): three out of five; potency relative to dEpoB (times less potent) [4]: slightly less potent than dEpoB; tumor free mice on day 28 ([14]; CCRF-CEM, dEpoF 30 mg/kg, 6 hr-i.v. infusion Q2D×6): one of three mice was tumor free
C/C1=C/C[C@@H](/C(C)=C/c2csc(C)n2)OC(=O)C[C@H](O)C(C)(C)C(=O)[C@H](C)[C@@H](O)[C@@H](C)CCC1 [dEpoB, 12,13-desoxyepothilone B] | 7.4 nM | 1/2 | 4.8 nM | 22.1 nM | 3.1 nM | 4 nM | 3.5 nM | 20.9 nM | 2.1 nM | – | – | – | ~10000 µg/mL (≈ 20.3 mM) | 23-29% | Taxol, CPT-11≈dEpoB, dEpoF | 3.6 nM | 3.8 nM | 7.15 nM | 13.3 nM | tumor disappearance on day 22 ([13]; MX-1, dEpoB 30 mg/kg Q2D×6 (day 10-20) then Q2D×5 (day 26-34)): ⅕; tumor disappearance on day 38 ([13]; MX-1, dEpoB 30 mg/kg Q2D×6 then Q2D×5): ⅖; body-weight gain during day 36-40 ([13]; MX-1-bearing mice, after dEpoB second cycle): about 2 gm; body-weight decrease on day 22 ([13]; MX-1-bearing mice, dEpoB 30 mg/kg Q2D (day 10-20)): about 3.5 gm; body-weight drop on day 36 ([13]; MX-1-bearing mice, dEpoB second cycle Q2D×5 (day 26-34)): about 4.1 gm; Lowest Average Tumor Size (T/C) ([13]; mouse, in vivo): 0; Therapeutic Effect Rank Order ([13]; mouse, in vivo): dEpoB>Adriamycin>Taxol; Tumor Disappearance ([13]; mouse, in vivo): 5/5; Therapeutic Effect Rank Order ([13]; mouse, in vivo, ip): dEpoB>Camptothecin>Taxol>VBL, EpoB; body-weight decrease without lethality at the doses used ([3]; dEpoB 30-40 mg/kg, paclitaxel 15-24 mg/kg, 6-hr i.v. infusion): 10-20%; IC50 ([4]; Homo sapiens, 72 h): 9.5 nM; Therapeutic Effect Rank Order ([14]; CCRF-CEM, i.v. infusion (dEpoB vs Taxol)): dEpoB≈Taxol; Lowest Average Tumor Size (T/C) [14, 20]: 0; Tumor Disappearance [14, 20]: 2/2; Lowest Average Tumor Size (T/C) [5, 16]: 0; IC50 ([6]; K562): 6.9 nM
